Reference: article PMC6036575, “Reincarnation of Bacteriocins From the Lactobacillus Pangenomic Graveyard” (Frontiers in Microbiology, 2018)
No end group written: not given here.

Columns and labels:
[1] = tested on: E. saccharolyticus DPC 4902; assay: Well diffusion assay, spectrum of bacteriocin activity; format: cell-based; details: 50 μl filtered supernatant of E. coli Tuner (DE3) transformants encoding the pediocin PA-1 leader, 7 mm wells, triplicate
Method: (§1) Bacteriocin activity was determined using well diffusion assays (WDAs). For Tuner^TM (DE3) E. coli transformants both the cell supernatant and the cell lysates were analyzed for antimicrobial activity, whilst only the supernatants were analyzed for L. paracasei NFBC338 cells. Supernatant was isolated by centrifugation of the liquid cultures at 4000 RCF for 15 min, these supernatants were then filtered using 0.20 μm membrane filters. For cell lysates, cell pellets were resuspended in 5 ml of phosphate-buffered saline (PBS), cells were lysed by sonication using a MSE Soniprep 150 (MSE, London, UK). Lysates were subsequently centrifuged at 4000 RCF for 15 min and the resulting supernatants were filtered using 0.20 μm membrane filters. For the indicator plates, 50 μl of an overnight culture of the indicator strain was added to the appropriate media containing 1% agar. Plates were cooled and 7 mm wells were bored in the agar. 50 μl of the cell supernatants/lysates being tested were added to each well and plates were refrigerated for 2 h prior to incubation under the appropriate conditions. WDAs were carried out in triplicate for each bacteriocin.
(§2) E. coli Tuner^TM (DE3) cells transformed with the newly constructed plasmids were grown in LB supplemented with glucose to maintain a low-copy number and bacteriocin expression was induced by co-incubation of the clones with 50 μM IPTG for 3 h. WDAs were used to identify bacteriocin activity from the bacterial supernatants and cell lysates. Bacteriocins were exclusively found in the bacterial supernatant. Antimicrobial activity was lower in cases where the native leader of the bacteriocin sequence was used; with only four of the nine strains displaying zones of inhibition against a sensitive indicator (pediocin 20336a has an identical leader to pediocin PA-1). For expression in L. paracasei NFBC338, cells were transformed by electroporation with the bacteriocin-containing pNZ44 vectors. Positive transformants were grown overnight and the neutralized cell free supernatant was used to identify bacteriocin production in WDAs.
(§3) The spectrum of activity was determined using WDAs against 32 indicator strains for bacteriocins produced by the E. coli transformants encoding the pediocin leader (Table 2). Despite being of the same class of bacteriocins, these novel antimicrobials display a varying spectrum of activity. […] Many of these bacteriocins, however, can inhibit a wide range of Gram positive bacteria including potential pathogens such as Enterococcus faecalis. As with most class IIa bacteriocins, these also display potent anti-listerial activity.

E.mundtii LMG 10748 = assay: as above; format: cell-based; details: 50 μl filtered supernatant of E. coli Tuner (DE3) transformants encoding the pediocin PA-1 leader, 7 mm wells, triplicate
Method: as §1, §2, §3

[2] = tested on: Enterococcus faecalis LMG 7397; assay: as above; format: cell-based; details: 50 μl filtered supernatant of E. coli Tuner (DE3) transformants encoding the pediocin PA-1 leader, 7 mm wells, 1% agar, triplicate
Method: as §1, §2, §3

L. amylophilus DSM 20509 = assay: as above; format: cell-based; details: 50 μl filtered supernatant of E. coli Tuner (DE3) transformants encoding the pediocin PA-1 leader, 7 mm wells, triplicate
Method: as §1, §2, §3

L. amylovorus DSM 20531 = assay: as above; format: cell-based; details: 50 μl filtered supernatant of E. coli Tuner (DE3) transformants encoding the pediocin PA-1 leader, 7 mm wells, triplicate
Method: as §1, §2, §3

L. apodemi DSM 16654 = assay: as above; format: cell-based; details: 50 μl filtered supernatant of E. coli Tuner (DE3) transformants encoding the pediocin PA-1 leader, 7 mm wells, triplicate
Method: as §1, §2, §3

L. crustorum JCM 15951 = assay: as above; format: cell-based; details: 50 μl filtered supernatant of E. coli Tuner (DE3) transformants encoding the pediocin PA-1 leader, 7 mm wells, triplicate
Method: as §1, §2, §3

L. mali DSM 20444 = assay: as above; format: cell-based; details: 50 μl filtered supernatant of E. coli Tuner (DE3) transformants encoding the pediocin PA-1 leader, 7 mm wells, triplicate
Method: as §1, §2, §3

[3] = tested on: Li. monocytogenes DPC 6893; assay: as above; format: cell-based; details: 50 μl filtered supernatant of E. coli Tuner (DE3) transformants encoding the pediocin PA-1 leader, 7 mm wells, triplicate
Method: as §1, §2, §3

[4] = tested on: Li. monocytogenes DPC 6894; assay: as above; format: cell-based; details: 50 μl filtered supernatant of E. coli Tuner (DE3) transformants encoding the pediocin PA-1 leader, 7 mm wells, triplicate
Method: as §1, §2, §3

[5] = tested on: Li. monocytogenes WSL 1416; assay: as above; format: cell-based; details: 50 μl filtered supernatant of E. coli Tuner (DE3) transformants encoding the pediocin PA-1 leader, 7 mm wells, triplicate
Method: as §1, §2, §3

[6] = tested on: Listeria innocua DPC 3572; assay: as above; format: cell-based; details: 50 μl filtered supernatant of E. coli Tuner (DE3) transformants encoding the pediocin PA-1 leader, 7 mm wells, triplicate
Method: as §1, §2, §3

P. clausenii DSM 14800 = assay: as above; format: cell-based; details: 50 μl filtered supernatant of E. coli Tuner (DE3) transformants encoding the pediocin PA-1 leader, 7 mm wells, triplicate
Method: as §1, §2, §3

[7] = tested on: P. ethanolidurans DSM 22301; assay: as above; format: cell-based; details: 50 μl filtered supernatant of E. coli Tuner (DE3) transformants encoding the pediocin PA-1 leader, 7 mm wells, triplicate
Method: as §1, §2, §3

32 indicator strains = assay: Well diffusion assays against the panel of 32 indicator strains; format: cell-based; details: for Total no. of strains inhibited: of 32 indicator strains, supernatant of E. coli transformants encoding the pediocin leader; for antimicrobial activity / spectrum, in words: crude supernatant from the E. coli heterologous host, pediocin PA-1 leader
Method: as §1, §2, §3

L. innocua DPC3572 = assay: Bacteriocin activity (BU/ml), dilution series in well diffusion assay; format: cell-based, Listeria innocua; details: inverse of the highest dilution of bacterial supernatant showing activity in a well diffusion assay
Method: as §1, §2

L. kimchicus JCM 15530 = assay: Well diffusion assay, spectrum of bacteriocin activity; format: cell-based; details: 50 μl filtered supernatant of E. coli Tuner (DE3) transformants encoding the pediocin PA-1 leader, 7 mm wells, triplicate
Method: as §1, §2, §3

L. nodensis DSM 16982 = assay: as above; format: cell-based; details: 50 μl filtered supernatant of E. coli Tuner (DE3) transformants encoding the pediocin PA-1 leader, 7 mm wells, triplicate
Method: as §1, §2, §3

[8] = tested on: L. paralimentarius DSM 13961; assay: as above; format: cell-based; details: 50 μl filtered supernatant of E. coli Tuner (DE3) transformants encoding the pediocin PA-1 leader, 7 mm wells, triplicate
Method: as §1, §2, §3

L. plantarum DSM 13273 = assay: as above; format: cell-based; details: 50 μl filtered supernatant of E. coli Tuner (DE3) transformants encoding the pediocin PA-1 leader, 7 mm wells, triplicate
Method: as §1, §2, §3

[9] = tested on: Pediococcus stilesii DSM 18001; assay: as above; format: cell-based; details: 50 μl filtered supernatant of E. coli Tuner (DE3) transformants encoding the pediocin PA-1 leader, 7 mm wells, triplicate
Method: as §1, §2, §3

[10] = produced by E. coli Tuner (DE3)
[11] = produced by L. paracasei NFBC338, neutralized cell free supernatant

| Substance | radius of the zone of inhibition [1] [millimeters] | radius of the zone of inhibition (E.mundtii LMG 10748) [millimeters] | radius of the zone of inhibition [2] [millimeters] | radius of the zone of inhibition (L. amylophilus DSM 20509) [millimeters] | radius of the zone of inhibition (L. apodemi DSM 16654) [millimeters] | radius of the zone of inhibition (L. crustorum JCM 15951) [millimeters] | radius of the zone of inhibition (L. mali DSM 20444) [millimeters] | radius of the zone of inhibition [3] [millimeters] | radius of the zone of inhibition [4] [millimeters] | radius of the zone of inhibition [5] [millimeters] | radius of the zone of inhibition [6] [millimeters] | radius of the zone of inhibition (P. clausenii DSM 14800) [millimeters] | radius of the zone of inhibition [7] [millimeters] | Total no. of strains inhibited (32 indicator strains) | Bacteriocin Activity (BU/ml) vs. L. innocua DPC3572 (L. innocua DPC3572; [10]) | Bacteriocin Activity (BU/ml) vs. L. innocua DPC3572 (L. innocua DPC3572; [11]) | radius of the zone of inhibition (L. kimchicus JCM 15530) [millimeters] | radius of the zone of inhibition [8] [millimeters] | radius of the zone of inhibition (L. plantarum DSM 13273) [millimeters] | radius of the zone of inhibition [9] [millimeters] | further results |
| --- | --- | --- | --- | --- | --- | --- | --- | --- | --- | --- | --- | --- | --- | --- | --- | --- | --- | --- | --- | --- | --- |
| –KYYGNGVYCG-KHKCRVDWGQAWGCSVNRWGAAVGTGGKATIGHC— (bicyclic or more) [Ruminicin (Rum), novel pediocin-like class IIa bacteriocin encoded by L. ruminis DSM 20403, heterologously expressed] | 2 ± 0 | 2 ± 0 | 1.17 ± 0.24 | 1.33 ± 0.47 | 1.67 ± 0.47 | 0.33 ± 0.47 | 2 ± 0 | 1 ± 0 | 2 ± 0 | 1 ± 0 | 3.33 ± 0.47 | 1 ± 0 | 2.17 ± 0.24 | 14 | +++ (+++ = 5120 – 10240 BU/ml) | +++ (+++ = 5120 – 10240 BU/ml) | – | – | – | – | radius of the zone of inhibition (L. amylovorus DSM 20531): 0.67 millimeters |
| –KYYGNGLYCG-KHSCSVDWGKATTCIINNGAMAWATGGHQGTHKC—— (bicyclic or more) [Pediocin 20336a (Ped20336), novel pediocin-like class IIa bacteriocin encoded by P. pentosaceus DSM 20336, heterologously expressed] | 5.67 ± 0.47 | 4.67 ± 0.47 | 4 ± 0 | 0.33 ± 0.47 | 3.67 ± 0.47 | 1 ± 0 | 6.33 ± 0.47 | 2.67 ± 0.47 | 4.33 ± 0.47 | 3.33 ± 0.94 | 7.33 ± 0.47 | 0.67 ± 0.47 | 5.67 ± 0.47 | 18 | + (+ = 0 – 160 BU/ml) | + (+ = 0 – 160 BU/ml) | 0.33 ± 0.47 | 1 ± 0.47 | 1.33 ± 0.47 | 1 ± 0 | radius of the zone of inhibition (L. nodensis DSM 16982): 1.67 ± 0.47 millimeters; antimicrobial activity / spectrum, in words (32 indicator strains): inhibited the growth of a larger number of the indicators tested than pediocin PA-1 |
| –KYYGNGVSCTKKHGCKVNWGQAFTCSVNRFANFGH–G————-NC— (bicyclic or more) [Hordeiocin (Hrd), novel pediocin-like class IIa bacteriocin encoded by L. hordei DSM 19519, heterologously expressed] | 3.67 ± 0.47 | 2.67 ± 0.47 | 2.67 ± 0.47 | 2.50 ± 0.41 | 2.67 ± 0.47 | 1 ± 0 | 4.33 ± 0.47 | 2 ± 0 | 4 ± 0 | 2 ± 0.82 | 4.67 ± 0.47 | 2 ± 0 | 3.67 ± 0.47 | 18 | +++ (+++ = 5120 – 10240 BU/ml) | ++ (++ = 320 – 2560 BU/ml) | 3 ± 0 | 1 ± 0.47 | 1.33 ± 0.47 | 1 ± 0 | radius of the zone of inhibition (L. nodensis DSM 16982): 3.67 ± 0.47 millimeters; antimicrobial activity / spectrum, in words (32 indicator strains): inhibited the growth of a larger number of the indicators tested than pediocin PA-1 |
| –KYYGNGVTCG-KHSCSVDWGKATTCIINNGAMAWATGGHQGNHKC—– (bicyclic or more) (KYYGNGVTCGKHSCSVDWGKATTCIINNGAMAWATGGHQGNHKC; not fully specified (bridges); cysteine pairing not given here; UniProt P29430 19-62, looked up) [Pediocin PA-1 (PedA), original class IIa bacteriocin of P. acidilactici LMG 2351, used as a control; heterologously expressed, reference compound] | 6 ± 0 | 5 ± 0 | 4.33 ± 0.47 | – | 3.33 ± 0.47 | 0.33 ± 0.47 | 7.67 ± 0.47 | 3 ± 0 | 5 ± 0 | 3.33 ± 0.94 | 8 ± 0 | – | 5.67 ± 0.47 | 14 | + (+ = 0 – 160 BU/ml) | ++ (++ = 320 – 2560 BU/ml) | – | 0.67 ± 0.47 | 0.33 ± 0.47 | 1 ± 0 | – |
